Assay results as given in patent publication US11279768B1, “Anti-cancer antibodies, combination therapies, and uses thereof” (PRECISION BIOLOGICS, INC., priority 2015, dated 2022).

Key:
uterus cancer samples = experiment: Immunohistochemistry, cancer tissue microarray, uterus; type: binding
Text: (§1) FIG. 2. Immunohistochemistry results from cancer tissue arrays. Immunohistochemistry method (IHC) was used for determining the presence of NEO-101/102, NEO-201 and NEO-301 antigens on paraffin microarrays and tissues. These primary antibodies (NEO-101/NEO-102, NEO-201 and NEO-301) were biotinylated prior to use. Paraffin tissue Microarrays and slides of tissues were reacted with the primary Ab after inactivating endogenous peroxidase and blocking the slides. Staining was detected with streptavidin-horseradish peroxidase conjugate and visualized with chromogen. Biotinylated human IgG1 was used as negative control and mouse anti-human cytokeratin monoclonal antibody was used as positive control. Antibody staining is measured as % and intensity of tumor epithelial cells and luminal secretion within the whole tissue section.
(§2) Immunohistochemistry (IHC) was used for determining the presence of NEO-101/102, NEO-201 and NEO-301 antigens on paraffin microarrays and tissues. These primary antibodies (NEO-101/NEO-102, NEO-201 and NEO-301) were biotinylated prior to use. […] Staining was detected with streptavidin-horseradish peroxidase conjugate and visualized with chromogen. […] Antibody staining was measured as % and intensity of tumor epithelial cells and luminal secretion within the whole tissue section. […]

[1] = tested on: pancreatic adenocarcinoma cells; experiment: Antigen expression by Flow Cytometry, pancreatic adenocarcinoma cell lines; type: binding, Human; details: primary antibody 10 ug/mL
Experimental: (§3) FIG. 1. NEO-101, NEO-201 and NEO-301 Antigen Expression by Human Normal and Cancer Cell Lines. NEO-101, NEO-201 and NEO-301 specific antigen expression in various cell lines were detected by Flow Cytometry. Viable cell suspensions were incubated with primary antibody NEO-101, NEO-201 and NEO-301 separately at 10 ug/mL. Human IgG (10 ug/mL) was used as negative control. Goat anti-human IgG (Fc)-phycoerythrin conjugate was used for primary antibody detection; 7-ADD was used for excluding dead cells from analysis. The staining was measured by Flow Cytometry (Guava instrument, Millipore). Median fluorescent intensity (MFI) and % of stained cells was used for determining presence of specific antigen on each cell line.
(§4) Antigen expression in cell lines of various origins were detected by Flow Cytometry. Viable cell suspensions were incubated with primary antibody NEO-101, NEO-201 and NEO-301 separately at 10 ug/mL. Human IgG (10 ug/mL) was used as negative control. Goat anti-human IgG (Fc)-phycoerythrin conjugate was used for primary antibody detection; 7-ADD was used for excluding dead cells from analysis. The staining was measured by Flow Cytometry (Guava instrument, Millipore). Median fluorescent intensity (MFI) and % of stained cells was used for determining presence of specific antigen on each cell line. […]

[2] = tested on: pancreatic cancer samples; experiment: Immunohistochemistry, paraffin tissue sections, pancreas; type: binding
Text: as §1, §2

colon cancer samples [3] = experiment: Immunohistochemistry, paraffin tissue sections, colon; type: binding
Text: as §1, §2

skin cancer samples = experiment: Immunohistochemistry, cancer tissue microarray, skin; type: binding
Text: as §1, §2

[4] = tested on: pancreatic cancer samples; experiment: Immunohistochemistry, cancer tissue microarray, pancreas; type: binding
Text: as §1, §2

[5] = tested on: colorectal adenocarcinoma cells; experiment: Antigen expression by Flow Cytometry, colorectal adenocarcinoma cell lines; type: binding, Human; details: multiple colorectal adenocarcinoma cell lines; primary antibody 10 ug/mL
Experimental: as §3, §4

[6] = tested on: lung squamous carcinoma cells; experiment: Antigen expression by Flow Cytometry, lung squamous cell carcinoma cell lines; type: binding, Human; details: multiple lung squamous cell carcinoma cell lines; primary antibody 10 ug/mL
Experimental: as §3, §4

colon cancer samples [7] = experiment: Immunohistochemistry, cancer tissue microarray, colon; type: binding
Text: as §1, §2

lung cancer samples [8] = experiment: Immunohistochemistry, cancer tissue microarray, lung; type: binding
Text: as §1, §2

[9] = tested on: lung adenocarcinoma cells; experiment: Antigen expression by Flow Cytometry, lung adenocarcinoma cell lines; type: binding, Human; details: multiple lung adenocarcinoma cell lines; primary antibody 10 ug/mL
Experimental: as §3, §4

lung cancer samples [10] = experiment: Immunohistochemistry, paraffin tissue sections, lung; type: binding
Text: as §1, §2

stomach cancer samples = experiment: Immunohistochemistry, cancer tissue microarray, stomach; type: binding
Text: as §1, §2

Molecule | cancer samples positive for the antigen (IHC) (uterus cancer samples) [%] | antigen expression detected by Flow Cytometry [1] | cancer samples positive for the antigen (IHC) [2] [%] | cancer samples positive for the antigen (IHC) (colon cancer samples [3]) [%] | cancer samples positive for the antigen (IHC) (skin cancer samples) [%] | cancer samples positive for the antigen (IHC) [4] [%] | antigen expression detected by Flow Cytometry [5] | antigen expression detected by Flow Cytometry [6] | cancer samples positive for the antigen (IHC) (colon cancer samples [7]) [%] | cancer samples positive for the antigen (IHC) (lung cancer samples [8]) [%] | antigen expression detected by Flow Cytometry [9] | cancer samples positive for the antigen (IHC) (lung cancer samples [10]) [%] | cancer samples positive for the antigen (IHC) (stomach cancer samples) [%]
NEO-201: Humanized 16C3 antibody; binds epitopes in CEACAM5 and CEACAM6 | 51 | detected | 83 | 94 | 16 | 86 | detected | detected | 85 | 61 | detected | 90 | 
NEO-101: Chimeric NPC-1 antibody, engineered in CHO-DG44 production cell clone 4B7; targets a variant of MUC5AC (protein, NPC-1 antibody light chain; (46)..(55) CDR1; (71)..(77) CDR2; (110)..(118) CDR3; NPC-1 antibody heavy chain; (49)..(54) CDR1; (69)..(84) CDR2; (114)..(121) CDR3, Chimeric NPC-1 antibody, engineered in CHO-DG44 production cell clone 4B7; targets a variant of MUC5AC) light: MDFQVQIFSFLLISASVILSRGQVVLTQSPVIMSASPGEKVTMTCSASSSISYMYWYQQKPGTSPKRWIYDTSKLASGVPARFSGSGSGTSYSLTISNMEAGDAATYYCHQRDSYPWTFGGGTNLEIKRADAAPTVSIFPPSSEQLTSGGASVVCFLNNFYPKDINVKWKIDGSERQNGVLNSWTDQDSKDSTYSMSSTLTLTKDEYERHNSYTCEATHKTSTSPIVKSFNRNEC heavy: MAVLALLLCLVTFPSCVLSQVQLKESGPDLVAPSQSLSITCTVSGFSLSKFGVNWVRQPPGKGLEWLGVIWGDGSTSYNSGLISRLSISKENSKSQVFLKLNSLQADDTATYYCVKPGGDYWGHGTSVTVSSAKTTPPSVYPLAPGSAAQTNSMVTLGCLVKGYFPEPVTVTWNSGSLSSGVHTFPAVLQSDLYTLSSSVTVPSSTWPSETVTCNVAHPASSTKVDKKIVPRDCGCKPCICTVPEVSSVFIFPPKPKDVLTITLTPKVTCVVVDISKDDPEVQFSWFVDDVEVHTAQTQPREEQFNSTFRSVSELPIMHQDWLNGKEFKCRVNSAAFPAPIEKTISKTKGRPKAPQVYTIPPPKEQMAKDKVSLTCMITDFFPEDITVEWQWNGQPAENYKNTQPIMDTDGSYFVYSKLNVQKSNWEAGNTFTCSVLHEGLHNHHTEKSLSHSPGK | 41 | detected | 82 | 87 |  | 31 | detected |  | 61 |  |  | 67 | 30
